MIC data for one molecule are collected here from patent US11998533B2, “Pharmaceutical compositions comprising LTV-17 and beta-lactamase inhibitors and their use as antibacterial agents” (FEDORA PHARMACEUTICALS INC., priority 2021, dated 2024).

Holding throughout (type): cell-based
One assay deals with Escherichia coli. Kind of assay: MIC broth microdilution, Escherichia coli isolates. To be noted: LTV-17 alone. As to the method:
(§1) Bacterial isolates: Representative resistant strains of Escherichia coli, Citrobacter freundii, Enterobacter cloacae, Klebsiella pneumoniae, and Proteus mirabilis harboring class-C β-lactamase producers were used to test for the synergistic effect of adding a β-lactamase inhibitor (II^j) to the antibiotic LTV-17 (I) (Table 1).
(§2) Minimum inhibitory concentration (MIC) test procedure: All antibiotics were tested by both the broth microdilution methods according to the Clinical and Laboratory Standards Institute (CLSI) recommendations (M07), and a modified CLSI method that included iron-depleted CA-MHB protocol. The MIC was defined as the lowest concentration of the antibiotic to produce clear wells in the 96-well plates. MIC interpretations were based on the CLSI M100-S23 (2013) and European Committee on Antimicrobial Susceptibility Testing (EUCAST; 2013) breakpoint criteria. Synergistic activity was calculated based on the number of two-fold dilution reduction of the MIC using LTV-17 (I) plus β-lactamase inhibitor Avibactam (II^j) compared to MIC of LTV-17 (I) tested alone against the same strains. The higher the number of two-fold reduction, the stronger the synergy is.
(§3) Avibactam was tested at a fixed concentration of 4 μg/mL.
A general note: In broth dilution the organism is exposed to a series of concentrations in liquid medium.

A further assay concerns Klebsiella pneumoniae. Put plainly: MIC broth microdilution, Klebsiella pneumoniae isolate. To be noted: isolate 1167846, CMY-DHA, LTV-17 alone. As to the method:
as §1, §2, §3

The test system of assay [1] is Citrobacter freundii species complex. Kind of assay: MIC broth microdilution, Citrobacter freundii species complex isolate. To be noted: isolate 1056585, Elevated AmpC, LTV-17 alone. On the procedure:
as §1, §2, §3

Another assay deals with Proteus mirabilis. Put plainly: MIC broth microdilution, Proteus mirabilis isolate. The conditions noted are these: isolate 1159308, CMY-DHA, LTV-17 alone. As to the method:
as §1, §2, §3

The subject of assay [2] is Enterobacter cloacae species complex. Kind of assay: MIC broth microdilution, Enterobacter cloacae species complex isolates. To be noted: LTV-17 alone. On the procedure:
as §1, §2, §3

On to `CC(C)(O/N=C(\C(=O)N[C@H]1CON(C2(C(=O)O)C[C@H](N3C(=O)c4cc(O)c(O)cc4C3=O)C(=O)O2)C1=O)c1csc(N)n1)C(=O)O` (stereo partly drawn) [LTV-17, (4S)-2-[(4S)-4-{[(2Z)-2-(2-amino-1,3-thiazol-4-yl)-2-{[(2-carboxypropan-2-yl)oxy]imino}acetyl]amino}-3-oxo-1,2-oxazolidin-2-yl]-4-(5,6-dihydroxy-1,3-dioxo-1,3-dihydro-2H-isoindol-2-yl)-5-oxooxolane-2-carboxylic acid], for which the minimal inhibitory concentration (MIC) in the assay with Escherichia coli (isolate 827002, Elevated AmpC) was 0.03 µg/mL; in the assay with Escherichia coli (isolate 841741, Elevated AmpC), 0.25 µg/mL; in the assay on Escherichia coli (isolate 850348, Elevated AmpC), 1 µg/mL; in the assay on Escherichia coli (isolate 850361, Elevated AmpC) it was 0.06 µg/mL; in the assay on Escherichia coli (isolate 1043714, Elevated AmpC) it was 0.06 µg/mL; with Escherichia coli (isolate 1047951, Elevated AmpC), 0.12 µg/mL. Besides, the MIC in the assay with Escherichia coli (isolate 1152443, CMY-DHA) turned out to be 0.5 µg/mL; with Escherichia coli (isolate 1160345, CMY-DHA) it was 0.5 µg/mL; in the assay on Escherichia coli (isolate 1160670, CMY-DHA), 0.12 µg/mL; in the assay on Escherichia coli (isolate 1165173, CMY-DHA) it was 0.25 µg/mL; in the assay with Escherichia coli (isolate 1165490, CMY-DHA), 0.5 µg/mL; with Escherichia coli (isolate 1165546, CMY-DHA) it was 0.5 µg/mL. The MIC was found to be 0.5 µg/mL in the assay on Escherichia coli (isolate 1167103, CMY-DHA); 4 µg/mL in the assay on Escherichia coli (isolate 1167174, CMY-DHA); 1 µg/mL with Klebsiella pneumoniae; 0.5 µg/mL in assay [1]; 4 µg/mL in the assay with Proteus mirabilis; 2 µg/mL in assay [2] (isolate 552115, Elevated AmpC). The MIC in assay [2] (isolate 1057610, Elevated AmpC) worked out at 0.25 µg/mL; in assay [2] (isolate 1083996, Elevated AmpC) it was 0.5 µg/mL.

In general, MIC refers to the lowest concentration found to suppress growth.
